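Method: 48-hour compound exposure of cells in 96-well plates, five concentrations, linear interpolation of endpoints. GI50 = concentration required for 50% inhibition of growth.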 Active and inactive are the calls of the source. No stated cut-off is given here; in the data, active = GI50 up to about 1.1 µM and inactive = higher.
How the values were obtained:
Test in all cases: NCI-60 cell line screen, 48 h
[1] = test system: SR
[2] = test system: HCT-116
[3] = test system: NCI-H460
[4] = test system: COLO 205
[5] = test system: SK-MEL-2
[6] = test system: DU-145
[7] = test system: UACC-257
[8] = test system: SNB-75
[9] = test system: SW-620
[10] = test system: HT-29
[11] = test system: NCI-H522
[12] = test system: SK-MEL-28
[13] = test system: OVCAR-8
[14] = test system: HCC 2998
[15] = test system: IGROV-1
[16] = test system: NCI/ADR-RES
[17] = test system: UO-31
[18] = test system: SN12C
[19] = test system: T47D
[20] = test system: SF-539

In the case of `COc1ccc(C(=O)NCCN(C)C)c2nc3ccccc3cc12`, the GI50 [1] is reported as 0.0551 µM (active), the GI50 [2] is reported as 0.561 µM (active) and the GI50 [3] is reported as 0.0255 µM (active). The GI50 [4] was 1.2 µM (inactive), the GI50 [5] was 3.01 µM (inactive) and the GI50 [6] was 0.753 µM (active). For the same compound, the GI50 [7] was 1.58 µM (inactive), the GI50 [8] was 4.68 µM (inactive) and the GI50 [9] was 0.383 µM (active). For the same compound, the GI50 [10] was 0.596 µM (active), the GI50 [11] was 0.817 µM (active) and the GI50 [12] was 2 µM (inactive). For the same compound, the GI50 [13] was 0.655 µM (active), the GI50 [14] was 2.04 µM (inactive) and the GI50 [15] was 1.32 µM (inactive). The GI50 [16] was 1.67 µM (inactive), the GI50 [17] was 0.532 µM (active) and the GI50 [18] was 0.386 µM (active). For the same compound, the GI50 [19] was 2.22 µM (inactive) and the GI50 [20] was 1.31 µM (inactive).

With `O=C(Cn1c(=O)oc2ccc(C(=O)c3ccc(F)cc3)cc21)c1ccccc1` the GI50 [1] was > 100 µM (inactive), the GI50 [2] was > 100 µM (inactive) and the GI50 [3] was 53.5 µM (inactive). For the same compound, the GI50 [4] was 66.2 µM (inactive), the GI50 [5] was > 100 µM (inactive) and the GI50 [6] was > 100 µM (inactive). For the same compound, the GI50 [7] was > 100 µM (inactive), the GI50 [8] was > 100 µM (inactive) and the GI50 [9] was > 100 µM (inactive). For the same compound, the GI50 [10] was 42.7 µM (inactive), the GI50 [11] was > 100 µM (inactive) and the GI50 [12] was > 100 µM (inactive). The GI50 [13] was > 100 µM (inactive), the GI50 [14] was > 100 µM (inactive) and the GI50 [15] was > 100 µM (inactive). For the same compound, the GI50 [16] was > 100 µM (inactive), the GI50 [17] was 25.7 µM (inactive) and the GI50 [18] was > 100 µM (inactive). The GI50 [19] was 93.5 µM (inactive) and the GI50 [20] was > 100 µM (inactive).

With `Clc1ccc(OCC2NC3C=CC32)cn1` (stereo not given) the GI50 [1] was 39.8 µM (inactive), the GI50 [2] was > 100 µM (inactive) and the GI50 [3] was > 100 µM (inactive). For the same compound, the GI50 [4] was > 100 µM (inactive), the GI50 [5] was > 100 µM (inactive) and the GI50 [6] was > 100 µM (inactive). The GI50 [7] was > 100 µM (inactive), the GI50 [8] was > 100 µM (inactive) and the GI50 [9] was > 100 µM (inactive). For the same compound, the GI50 [10] was 50.1 µM (inactive), the GI50 [11] was > 100 µM (inactive) and the GI50 [12] was > 100 µM (inactive). For the same compound, the GI50 [13] was > 100 µM (inactive), the GI50 [14] was > 100 µM (inactive) and the GI50 [15] was > 100 µM (inactive). For the same compound, the GI50 [16] was > 100 µM (inactive), the GI50 [17] was 44.7 µM (inactive) and the GI50 [18] was > 100 µM (inactive). For the same compound, the GI50 [19] was > 100 µM (inactive) and the GI50 [20] was > 100 µM (inactive).

`CN(C)CCNC(=O)c1nc([N+](=O)[O-])cn1C` was tested, and the GI50 [1] was > 100 µM (inactive), the GI50 [2] was > 100 µM (inactive) and the GI50 [3] was > 100 µM (inactive). The GI50 [4] was > 100 µM (inactive), the GI50 [5] was > 100 µM (inactive) and the GI50 [6] was > 100 µM (inactive). The GI50 [7] was > 100 µM (inactive), the GI50 [8] was > 100 µM (inactive) and the GI50 [9] was > 100 µM (inactive). For the same compound, the GI50 [10] was > 100 µM (inactive), the GI50 [11] was > 100 µM (inactive) and the GI50 [12] was > 100 µM (inactive). For the same compound, the GI50 [13] was > 100 µM (inactive), the GI50 [14] was > 100 µM (inactive) and the GI50 [15] was > 100 µM (inactive). The GI50 [16] was > 100 µM (inactive), the GI50 [17] was > 100 µM (inactive) and the GI50 [18] was > 100 µM (inactive). The GI50 [19] was > 100 µM (inactive) and the GI50 [20] was > 100 µM (inactive).

With `COC[C@H]1OC(=O)c2coc3c2[C@@]1(C)C1=C(C3=O)[C@@H]2CCC(=O)[C@@]2(C)C[C@H]1OC(C)=O` [WORTMANNIN] the GI50 [1] was 1.84 µM (inactive), the GI50 [2] was 13.4 µM (inactive) and the GI50 [3] was 8.95 µM (inactive). For the same compound, the GI50 [4] was 10 µM (inactive), the GI50 [5] was 2.21 µM (inactive) and the GI50 [6] was 3.34 µM (inactive). The GI50 [7] was 2.95 µM (inactive), the GI50 [8] was 0.323 µM (active) and the GI50 [9] was 17.7 µM (inactive). For the same compound, the GI50 [10] was 1.97 µM (inactive), the GI50 [11] was 13.8 µM (inactive) and the GI50 [12] was 7.45 µM (inactive). For the same compound, the GI50 [13] was 25 µM (inactive), the GI50 [14] was 2.16 µM (inactive) and the GI50 [15] was 1.28 µM (inactive). The GI50 [16] was 38.8 µM (inactive), the GI50 [17] was 0.665 µM (active) and the GI50 [18] was 7.14 µM (inactive). For the same compound, the GI50 [19] was 0.637 µM (active) and the GI50 [20] was 2.82 µM (inactive).
